{"source": "ChEMBL document CHEMBL1201862", "about": "“PubChem BioAssay data set” (2004)", "experiment_in_all_cases": "DTP human tumour cell line panel, 48 h", "key": {"UACC-62": {"tested_on": "UACC-62"}, "MDA-N": {"tested_on": "MDA-N"}, "SK-MEL-5": {"tested_on": "SK-MEL-5"}, "COLO 205": {"tested_on": "COLO 205"}, "UO-31": {"tested_on": "UO-31"}, "SK-MEL-2": {"tested_on": "SK-MEL-2"}, "CAKI-1": {"tested_on": "CAKI-1"}, "786-0": {"tested_on": "786-0"}, "SF-295": {"tested_on": "SF-295"}, "Malme-3M": {"tested_on": "Malme-3M"}, "T47D": {"tested_on": "T47D"}, "SK-OV-3": {"tested_on": "SK-OV-3"}, "DU-145": {"tested_on": "DU-145"}, "BT-549": {"tested_on": "BT-549"}, "IGROV-1": {"tested_on": "IGROV-1"}, "OVCAR-5": {"tested_on": "OVCAR-5"}, "K562": {"tested_on": "K562"}, "SN12C": {"tested_on": "SN12C"}, "TK-10": {"tested_on": "TK-10"}, "HOP-92": {"tested_on": "HOP-92"}, "PC-3": {"tested_on": "PC-3"}, "NCI/ADR-RES": {"tested_on": "NCI/ADR-RES"}, "SW-620": {"tested_on": "SW-620"}, "OVCAR-8": {"tested_on": "OVCAR-8"}, "LOX IMVI": {"tested_on": "LOX IMVI"}, "HCT-15": {"tested_on": "HCT-15"}, "MCF7": {"tested_on": "MCF7"}, "UACC-257": {"tested_on": "UACC-257"}, "MDA-MB-231": {"tested_on": "MDA-MB-231"}, "U-251": {"tested_on": "U-251"}, "HL-60": {"tested_on": "HL-60"}, "HT-29": {"tested_on": "HT-29"}, "EKVX": {"tested_on": "EKVX"}, "A549": {"tested_on": "A549"}, "RXF 393": {"tested_on": "RXF 393"}, "SNB-75": {"tested_on": "SNB-75"}, "HOP-62": {"tested_on": "HOP-62"}, "M14": {"tested_on": "M14"}, "SNB-19": {"tested_on": "SNB-19"}, "SK-MEL-28": {"tested_on": "SK-MEL-28"}, "RPMI-8226": {"tested_on": "RPMI-8226"}, "HCT-116": {"tested_on": "HCT-116"}, "A498": {"tested_on": "A498"}, "KM12": {"tested_on": "KM12"}, "Hs-578T": {"tested_on": "Hs-578T"}, "NCI-H522": {"tested_on": "NCI-H522"}, "MDA-MB-435": {"tested_on": "MDA-MB-435"}, "MOLT-4": {"tested_on": "MOLT-4"}, "OVCAR-4": {"tested_on": "OVCAR-4"}, "SR": {"tested_on": "SR"}, "NCI-H460": {"tested_on": "NCI-H460"}, "SF-268": {"tested_on": "SF-268"}, "OVCAR-3": {"tested_on": "OVCAR-3"}, "NCI-H226": {"tested_on": "NCI-H226"}, "ACHN": {"tested_on": "ACHN"}, "SF-539": {"tested_on": "SF-539"}, "NCI-H23": {"tested_on": "NCI-H23"}}, "note": "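How tested: cells in 96-well plates exposed to compound for 48 hours at five concentrations. At the GI50, growth is halved.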 Calls of active or inactive are those of the source. Rule as the data show it: active = GI50 up to about 1.1 µM and inactive = higher.", "data": [{"smiles": "C=CCSc1nc2c(N)ncnc2n1C1OC(CO)C(O)C1O", "note": "(configuration not stated)", "values": [{"measurement": "GI50", "setting": "UACC-62", "value": "> 100 µM (inactive)"}, {"measurement": "GI50", "setting": "MDA-N", "value": "> 100 µM (inactive)"}, {"measurement": "GI50", "setting": "SK-MEL-5", "value": "> 100 µM (inactive)"}, {"measurement": "GI50", "setting": "COLO 205", "value": "> 100 µM (inactive)"}, {"measurement": "GI50", "setting": "UO-31", "value": "> 100 µM (inactive)"}, {"measurement": "GI50", "setting": "SK-MEL-2", "value": "> 100 µM (inactive)"}, {"measurement": "GI50", "setting": "CAKI-1", "value": "> 100 µM (inactive)"}, {"measurement": "GI50", "setting": "786-0", "value": "> 100 µM (inactive)"}, {"measurement": "GI50", "setting": "SF-295", "value": "> 100 µM (inactive)"}, {"measurement": "GI50", "setting": "Malme-3M", "value": "> 100 µM (inactive)"}, {"measurement": "GI50", "setting": "T47D", "value": "> 100 µM (inactive)"}, {"measurement": "GI50", "setting": "SK-OV-3", "value": "> 100 µM (inactive)"}, {"measurement": "GI50", "setting": "DU-145", "value": "> 100 µM (inactive)"}, {"measurement": "GI50", "setting": "BT-549", "value": "> 100 µM (inactive)"}, {"measurement": "GI50", "setting": "IGROV-1", "value": "> 100 µM (inactive)"}, {"measurement": "GI50", "setting": "OVCAR-5", "value": "> 100 µM (inactive)"}, {"measurement": "GI50", "setting": "K562", "value": "> 100 µM (inactive)"}, {"measurement": "GI50", "setting": "SN12C", "value": "> 100 µM (inactive)"}, {"measurement": "GI50", "setting": "TK-10", "value": "> 100 µM (inactive)"}, {"measurement": "GI50", "setting": "HOP-92", "value": "> 100 µM (inactive)"}, {"measurement": "GI50", "setting": "PC-3", "value": "> 100 µM (inactive)"}, {"measurement": "GI50", "setting": "NCI/ADR-RES", "value": "> 100 µM (inactive)"}, {"measurement": "GI50", "setting": "SW-620", "value": "> 100 µM (inactive)"}, {"measurement": "GI50", "setting": "OVCAR-8", "value": "> 100 µM (inactive)"}, {"measurement": "GI50", "setting": "LOX IMVI", "value": "> 100 µM (inactive)"}, {"measurement": "GI50", "setting": "HCT-15", "value": "> 100", "unit": "µM"}, {"measurement": "GI50", "setting": "MCF7", "value": "> 100 µM (inactive)"}, {"measurement": "GI50", "setting": "UACC-257", "value": "> 100 µM (inactive)"}, {"measurement": "GI50", "setting": "MDA-MB-231", "value": "> 100 µM (inactive)"}, {"measurement": "GI50", "setting": "U-251", "value": "> 100 µM (inactive)"}, {"measurement": "GI50", "setting": "HL-60", "value": "> 100 µM (inactive)"}, {"measurement": "GI50", "setting": "HT-29", "value": "> 100 µM (inactive)"}, {"measurement": "GI50", "setting": "EKVX", "value": "> 100 µM (inactive)"}, {"measurement": "GI50", "setting": "A549", "value": "> 100 µM (inactive)"}, {"measurement": "GI50", "setting": "RXF 393", "value": "> 100 µM (inactive)"}, {"measurement": "GI50", "setting": "SNB-75", "value": "> 100 µM (inactive)"}, {"measurement": "GI50", "setting": "HOP-62", "value": "> 100 µM (inactive)"}, {"measurement": "GI50", "setting": "M14", "value": "> 100 µM (inactive)"}, {"measurement": "GI50", "setting": "SNB-19", "value": "> 100 µM (inactive)"}, {"measurement": "GI50", "setting": "SK-MEL-28", "value": "> 100 µM (inactive)"}, {"measurement": "GI50", "setting": "RPMI-8226", "value": "> 100 µM (inactive)"}, {"measurement": "GI50", "setting": "HCT-116", "value": "> 100 µM (inactive)"}, {"measurement": "GI50", "setting": "A498", "value": "> 100 µM (inactive)"}, {"measurement": "GI50", "setting": "KM12", "value": "80.2 µM (inactive)"}, {"measurement": "GI50", "setting": "Hs-578T", "value": "> 100 µM (inactive)"}, {"measurement": "GI50", "setting": "NCI-H522", "value": "> 100 µM (inactive)"}, {"measurement": "GI50", "setting": "MDA-MB-435", "value": "> 100 µM (inactive)"}, {"measurement": "GI50", "setting": "MOLT-4", "value": "> 100 µM (inactive)"}, {"measurement": "GI50", "setting": "OVCAR-4", "value": "> 100 µM (inactive)"}, {"measurement": "GI50", "setting": "SR", "value": "> 100 µM (inactive)"}, {"measurement": "GI50", "setting": "NCI-H460", "value": "> 100 µM (inactive)"}, {"measurement": "GI50", "setting": "SF-268", "value": "> 100 µM (inactive)"}, {"measurement": "GI50", "setting": "OVCAR-3", "value": "> 100 µM (inactive)"}, {"measurement": "GI50", "setting": "NCI-H226", "value": "> 100 µM (inactive)"}, {"measurement": "GI50", "setting": "ACHN", "value": "> 100 µM (inactive)"}, {"measurement": "GI50", "setting": "SF-539", "value": "> 100 µM (inactive)"}, {"measurement": "GI50", "setting": "NCI-H23", "value": "> 100 µM (inactive)"}]}]}
